# Measured values published in patent publication US7329638B2, “Drug delivery compositions” (priority 2003, dated 2008).
# Where “and” joins values, the source holds several entries; their conditions need not be identical. Equal entries are not always repeated.
# Columns and labels:
# [1] = tested on: MCF-7 cells; assay: Cellular uptake of FITC-labeled gelonin and TAT-Gel (FACS and confocal microscopy); format: cell-based; conditions: MCF-7, FITC label, 10 nM, 1 hr at 37° C.
# Protocol: FIGS. 7A-7D show the cellular uptake of TAT and TAT-Gel conjugates into MCF-7 cells. The left two panels provide confocol microphotograph sections of DIC image and corresponding fluorescent images, whereas right panels show FACS results (ordinate, number of cells, abcissa, fluorescent intensity). Cells were treated with FITC-labeled gelonin (FIG. 7A); TAT-Gel (FIG. 7B); TAT-Gel+heparin (FIG. 7C); and TAT-Gel+heparin and then+protamine (FIG. 7D). Protein concentration was adjusted to 10 nM, and the incubation time was 1 hr at 37° C.
# In certain embodiments, the TAT-mediated cell internalization and the cytotoxicity of TAT-Gel were examined in vitro in MCF-7 and CT-26 cell cultures. The membrane-transducing ability of the TAT-Gel conjugates was determined using fluorescence (FITC)-labeled gelonin or TAT-Gel added to the culture media of MCF-7 cells, followed by analysis by both the fluorescence activated cell sorting (FACS) and confocol microscopy. […] On the other hand, almost all of the FITC labels were found inside, and specifically inside the cytosol (see confocol results), of all (˜100%) cells (see the FACS data) within one hour of incubation of the cells with the TAT-Gel conjugates (FIG. 7B). Considering the fact that gelonin exerts its cytotoxic activity via binding with ribosomes and cleaving RNA, this cytosolic localization actually yields beneficial therapeutic affects. […]
# [2] = tested on: murine tumor tissues; assay: Tumor penetration of rhodamine-labeled gelonin and TAT-Gel; format: in vivo, mice; conditions: tumors isolated at 10 hrs after injection
# From the text: FIGS. 18A and 18B show tumor penetration of rhodamine-labeled TAT-Gel conjugates (FIG. 18A), and free gelonin (FIG. 18B). Tumors were isolated at 10 hrs after injection of the rhodamine-labeled TAT-Gel conjugate or free gelonin and then photographed.
# To further confirm that TAT-Gel conjugates penetrate into tumor tissues, rhodamine-labeled gelonin was used in several additional in vivo studies. […] The extremely efficient tumor penetration and widespread drug distribution capabilities of the compositions and methods of the present invention are of great significance to anticancer therapy.
# [3] = tested on: CT-26 murine adenocarcinoma colon cancer cells; assay: MTT cytotoxicity in CT-26 cells in log-phase culture; format: cell-based; conditions: CT-26, MTT
# Protocol: Various doses of each test compound were added to 96-well culture plates containing approximately 5,000 cells/well. The plates were incubated for 48 hrs at 37° C. under an atmosphere of 5% CO2 in humidified air. Remaining cells were assessed using MTT and compared to untreated control wells. Values shown are means±standard deviation.
# Cytotoxicity was measured as described in FIG. 8.
# Various doses of each compound were added to 96-well culture plates containing approximately 5,000 cells/well. The plates were incubated for 48 hrs at 37° C. under an atmosphere of 5% CO2 in humidified air in an incubator. Test cells were assessed by MTT assay and then compared to untreated cells in control wells. Values are represented as means±standard deviation. Each experiment was performed in triplicate.
# In additional embodiments, the cytotoxicity of gelonin and the TAT-Gel conjugates were examined in CT-26 murine adenocarcinoma colon cancer cells in log-phase culture.
# [4] = tested on: CT26 colon carcinoma; assay: Tumor regression in CT-26 tumor-bearing mice, intratumoral injection (gelonin series); format: in vivo, BALB/c mice
# [5] = oral administration; cited from earlier work
# [6] = tested on: MCF7/ADR cells; assay: MTT cytotoxicity and drug accumulation in doxorubicin resistant MCF7/ADR cells; format: cell-based; conditions: for IC50: Homo sapiens, NCI/ADR-RES, 48 h, MCF7/ADR, 48 hrs exposure, MTT
# Protocol: In some embodiments, monolayer doxorubicin sensitive (MCF7) and resistant (MCF7/ADR) cells were then exposed to either doxorubicin or TAT-Dox conjugates at various concentrations (up to 100 μM) for 48 hrs in the presence or absence of 10 μM verapamil. Cell viability was measured by MTT assay. […] Verapamil, a P-glycoprotein inhibitor, was able to restore most of the cytotoxic activities of free doxorubicin.
# [7] = tested on: MCF-7 cells; assay: Cell translocation and uptake kinetics of FITC-labeled LMWP and TAT; format: cell-based
# Protocol: Cells were incubated with the FITC-labeled peptides and then lysed. Fluorescence intensities in the supernatants were measured.
# In some embodiments, purified LMWP was prepared according to the method described in L.C. Chang et al., AAPS PharmSci., 3(2) Article 17 [2001]. In some additional embodiments, cell internalization characteristics of TAT and LMWP were compared by confocol microscopy using FITC-labeled peptides. Like TAT, after 15 min of incubation with MCF-7 cells at 37° C., more than 70% of the FITC-labeled LMWP entered the cytosol of the MCF-7 cells (FIG. 13). […] The reason for the difference in cell localization remains unclear, however, while the present invention is not limited to any particular mechanism, it is contemplated that TAT, which contains the sequence of the nuclear localization signal (NLS) peptide, can penetrate into the cell's nucleus either through pores on the nuclear envelope, or via binding with certain cytoplasmic components which confer nuclear localization. (L. Chaloin et al., Biochem. Biophys. Res. Commun., 243:601-608 [1998]; and M. A. Zanta M A et al., Proc. Natl. Acad. Sci. USA, 96:91-96 [1999]). In some embodiments, the localization of TAT and TAT-like peptides can be directed to the cytoplasm or to other sites within the cell by making altering portions of its amino acid sequence. (See e.g., M. M. Gottesman et al., Nature Reviews Cancer, 2:48-58 [2002]). In some preferred embodiments, the sequence of the PTD component/subcomponent of the drug delivery composition is selected or modified (e.g., amino acid sequence altered) so that the composition and the therapeutic molecule(s) being carried are localized to the cytoplasm. The present invention contemplates that in certain embodiments the localization of the drug delivery compositions to the cytoplasm aids in the penetration of the therapeutic molecules throughout the targeted tissue (e.g., from the tumor periphery to the tumor core).
# FIG. 14 provides a comparison of the rate of cellular uptake of LMWP and TAT. […]
# [8] = tested on: CT-26 cells; assay: Translocation of rhodamine-labeled gelonin by TAT or LMWP (fluorescence microscopy); format: cell-based; conditions: CT-26, 2 hrs incubation
# Protocol: FIGS. 15A and 15B show the translocation of gelonin into the CT-26 cells with the aid of: TAT (FIG. 15A); or LMWP (FIG. 15B). Fluorescent microscopy was conducted on cells treated with rhodamine-labeled TAT- or LMWP-gelonin following 2 hrs of incubation in CT-26 cells.
# In some embodiments, studies were preformed to compare the capabilities of LMWP and TAT in protein translocation. In some of these embodiments, the LMWP and TAT peptides were conjugated to gelonin using the PDPH method described herein. To create a -SH group for coupling, LMWP was modified prior to its conjugation by treatment with SPDP and DTT, using the protocol established by J. Carlsson et al., (J. Carlsson et al., Biochem. J., 173:723-737 [1978]). Gelonin was labeled with rhodamine prior to conjugation.
# [9] = tested on: implanted tumors; assay: Tumor regression in tumor-bearing mice, intratumoral injection (RNase series); format: in vivo; conditions: excised thirty days (4 weeks) after initial treatment
# Protocol: Drugs were administered by intratumoral injection. Injections were started 3 weeks after tumor cell implantation when tumors reached the size about 100 mm^3. Thirty days after initial treatment, mice were sacrificed and their tumors were excised, weighed, and photographed.
# For example, in test animals an average tumor weight of 2.92±0.47 g (N=5) was observed 4 weeks after treatment (Lane 4; FIG. 11B) that was statistically indistinguishable from the value of 3.16±0.65 g (Lane 2 in FIG. 11B) of the control group without treatment. […] The addition of protamine to the heparin-inhibited TAT-RNase conjugates completely reversed inhibition and tumor growth was regressed to an insignificant weight of 0.09±0.05 g (Lane 5; FIG. 11B).
molecule,measurement,setting,value
gelonin,"cellular uptake (confocal and FACS, in words)",[1],virtually no cellular uptake
same,tumor penetration (rhodamine staining of excised tumor),[2],virtually no staining or only sporadic weak staining
same,cytotoxicity / inhibition of cell growth (in words),[3],did not induce cell death
same,cytotoxicity / inhibition of cell growth (in words),[3]; listed as Gelonin,did not display any detectable inhibition on cell growth
same,average tumor mass,"[4]; excised thirty days (four weeks) after initial treatment, intratumoral, 9 treatments",2.63 ± 0.5 g and 2.62 ± 0.53 g
same,gross appearance of tumor after treatment,[4]; two and four weeks after intratumoral injection,not cytotoxic to the tumor
"N[C@@H](Cc1ccc(O)c(O)c1)C(=O)O [levodopa, L-3,4-dihydroxy-phenylalanine]",fraction that penetrates the CNS,[5],less than 1%
"COc1cccc2c1C(=O)c1c(O)c3c(c(O)c1C2=O)C[C@@](O)(C(=O)CO)C[C@@H]3O[C@H]1C[C@H](N)[C@H](O)[C@H](C)O1 [Dox, doxorubicin]",IC50,[6]; Verapamil (10 μM),6.7 µM
same,IC50,[6]; without verapamil,45.2 µM
same,IC50 of free doxorubicin relative to Dox-TAT conjugates,[6]; MCF7/MDR cells,~8 fold
same,amount of doxorubicin seen in cells by fluorescence microscopy,[6]; MDR cells,negligible amount
TAT: highly cationic 11 amino acid section of the TAT-peptide (YGRKKRRQRRR; SEQ ID NO:6),rate of cellular uptake (comparison in words),[7]; MCF-7,slightly faster cellular uptake than LMWP
same,incubation time at which cellular concentration reached a maximum,"[7]; MCF-7, FITC-labeled peptides",30 min
same,subcellular localization,"[7]; MCF-7, after 30 min incubation",primarily localizes in the nucleus
same,translocation of rhodamine-labeled gelonin into cells,[8],capable of translocating gelonin
RNase,average tumor mass,[9],2.92 ± 0.47 g
